Laboratory results as given in patent publication US8007782B2, “Combination bacteriolytic therapy for the treatment of tumors” (priority 2003, dated 2011).

Key:
[1] = test system: Glucose Transporter-1 (Glut-1); test: Immunohistochemistry for Glut-1 (hypoxia marker) in HCT116 xenografts; type: in vivo, mice; conditions: HTI-286 1.7 mg/kg or docetaxel 50 mg/kg iv, 6 hr after treatment
Procedure: Mice were euthanized six hours after treatment. Tumors were sectioned and H & E stained. Adjacent sections were stained for Glut-1 expression, a marker for hypoxia. Cells positive for Glut-1 appear brown. Arrows indicate examples of hemorrhage.
Paraffin sections were deparaffinized, incubated with proteinase K (Invitrogen), heated at 95° C. for 20 min in citrate buffer (pH 6), and treated with peroxidase blocking reagent (Dako). Sections were incubated with a monoclonal antibody against Glucose Transporter-1 (Glut-1, Dako) followed by a biotin-conjugated secondary antibody (Pierce). A third layer consisting of HRP-conjugated anti-biotin (DAKO) was followed by diaminobenzidine (Sigma) staining. Sections were counterstained with eosin.
Two independent tests of this hypothesis were performed. First, we directly assessed hypoxia within tumors by staining with an antibody to Glucose Transporter-1 (Glut-1). Glut-1 has been extensively studied and shown to be specifically expressed only in hypoxic regions (Airley et al., 2001).

Weight loss after COBALT = type: in vivo, nude mice; conditions: drug dose 1.7 mg/kg; maximum average weight loss relative to weight one day prior to treatment; HCT116 xenografts
Description: All animal protocols were designed in accordance with the Guide for the Care and Use of Laboratory Animals (NIH Publication 86-23) and were approved by the Johns Hopkins University Institutional Animal Care and Use Committee. Six to eight week old mice were implanted subcutaneously on one flank with 3 to 6 million cancer cells. Establishment of tumors of 150 to 500 mm3 took 8 to 21 days, depending on the cell type. C. novyi-NT spores (300×106) and anti-microtubule agents were generally administered by a single intravenous injection through the tail vein in a total volume of 300 to 500 ul phosphate-buffered saline (PBS). Quantitative assessment of tumor growth was performed by measuring subcutaneous tumor grafts (major and minor axis) using electronic calipers. Tumor volume was calculated using the equation: length×width2×0.5. Progression free survival was defined as the length of time following treatment before any increase in tumor volume was observed. Mice were considered “cured” if no tumor was evident three months after treatment. Animals were weighed at least twice a week and carefully observed for signs of toxicity every day for the first week following treatment and then twice a week thereafter. At least five mice were used for each treatment arm described in the Experimental Results.
This toxicity was observed only when the combination of C. novyi-NT spores and the drugs was administered and not with either the bacteria or the drugs alone. […] Though major tumor regressions were common, few mice died as a result of therapy (Table 2) No deaths occurred after treatment with the microtubule stabilizers plus C. novyi-NT, while 4% to 8% of mice treated with microtubule destabilizers plus C. novyi-NT died. The only other toxicity observed was transient weight loss (Table 3). Mice treated with the drugs alone lost ˜5 to 10% of their body weight within 7 days, while weight loss after treatment with C. novyi-NT plus these drugs varied from 8% to 18%. All weights recovered to pre-treatment levels within two weeks.

[2] = test system: tumor blood flow in HCT116 xenografts; test: Assessment of blood perfusion (Hoechst 33342) in HCT116 xenografts; type: in vivo, mice; conditions: HTI-286 1.7 mg/kg or docetaxel 50 mg/kg iv, 3 and 24 hr after treatment
Procedure: Three or 24 hours after treatment, mice were intravenously injected with Hoechst 33342 (40 mg/kg) and euthanized two minutes later. Tumors were cryosectioned and viewed by fluorescence microscopy after counter-staining with acridine orange (AO). Endothelial cells are stained blue when they have taken up the Hoechst 33342 dye. Adjacent sections were stained with MECA-32 monoclonal antibody, a vascular endothelium-specific marker. Arrows point towards normal blood vessels unaffected by HTI-286 treatment in overlying skin.
Mice bearing HCT116 xenografts of 300 to 500 mm3 were injected intravenously with anti-microtubule agents. At various times thereafter, they were intravenously injected with Hoechst 33342 (40 mg/kg), then euthanized two minutes later by CO2 narcosis. Tumors were fixed in Tissue-Tek OTC compound (Sakura Finetek, Torrance, Calif.) and stored at −80° C. Frozen sections 10 microns in thickness were prepared with a Leica Microsystems cryostat and counterstained with acridine orange, 7.5 ug/ml, in PBS for 5 minutes. […] At least three sections of each of three tumors, representing middle and distal parts of the tumor, were examined under fluorescence microscopy for each agent tested, and representative results are illustrated in the figures. […]

SMILES: CN[C@H](C(=O)N[C@H](C(=O)N(C)[C@H](/C=C(\C)C(=O)O)C(C)C)C(C)(C)C)C(C)(C)c1ccccc1 [HTI-286, N,β,β-trimethyl-L-phenylalanyl-N^1-[(1S,2E)-3-carboxy-1-isopropylbut-2-enyl]-N^1,3-dimethyl-L-valinamide]
- Glut-1 expression (hypoxia marker) in tumors [1]: large amounts of Glut-1
- Weight Loss (%) (Weight loss after COBALT): 11.4%
- blood flow to the tumors (Hoechst 33342 labelling) [2]: almost completely inhibited
